From patent publication US20050142204A1 (priority 2001, published 2005)

Legend:
[1] = test system: fatty acid synthesis in Plasmodium falciparum; details: cited from earlier work
[2] = topical and oral; Bhargava & Leonard 1996; cited from earlier work
[3] = Solubility of triclosan; type: physicochemical
[4] = human, in vivo, 552 mg
Method: Four volunteers were invited randomly to take part in the trial. The volunteers were in a rested and fasted state when the trial began. A single dose of 552 mg (two soft gelatine capsules) was administered and blood samples were drawn 15 times over 36 hours.
Quantitative analysis of the blood samples was conducted using an HPLC method developed and validated at the Research Institute for Industrial Pharmacy. Results of the analysis were evaluated statistically and values for AUC, Cmax and tmax were obtained.
A) Chromatographic Condition: • Analytical instrument: HP1050 series HPLC with a pump, autosampler, UV detector and Chemstation Rev.
B) Sample Preparation with enzymatic hydrolysis: • 1. Pipet 1 ml of plasma into a 5 ml siliconised glass test tube. • 2. Add 1 ml of 0.2 M sodium acetate-acetic acid buffer, pH 5.0. • 3. […] Vortex mix for 10 seconds, seal and incubate at 40° C. for 12 hours. • 5. Add 0.5 ml of the internal standard solution and centrifuge at 14000 rpm (4900 RCF) for 10 minutes before applying to the SPE columns.
C) Internal Standard Solution: • 1. Weight approximately 5 mg of acenaphthene accurately and dissolve in 250 ml of solvent. • 2. Add 0.5 ml of this solution to all standards and samples.
D) Standard Solution: • 1. […] Make further dilutions of 5 ml to 100 ml and 10 ml to 50 ml in water to obtain 80, 16- and 4.0 μg/ml stock solutions.
3. […]

[5] = test system: malaria parasites; details: Surolia 2001, cited from earlier work
[6] = cited from earlier work

Oc1cc(Cl)ccc1Oc1ccc(Cl)cc1Cl [triclosan]
concentration sufficient for 50% inhibition of fatty acid synthesis ([1]; Surolia and Surolia (2001:168), printed in brackets beside the μM value): 580 ng/mL | IC50 ([1]; read-out: concentration sufficient for 50% inhibition of fatty acid synthesis, Surolia and Surolia (2001:168)): 3000 nM | safety in toxicity studies [2]: safe topically as well as orally | solubility in oils [3]: very soluble in oils | bioavailability [4]: good in three of the four volunteers | activity against malaria parasites [5]: active against malaria parasites | effective dose ([5]; malaria): 28 to 38 mg/kg | solubility in water [6]: very low solubility in water
